Measurements published in patent US11596626B2, “Compound for use against pathogenic Neisseria and Haemophilus species and Moraxella catarrhalis” (priority 2017, dated 2023).
“Also recorded” adds a separate entry of the source.

What was measured:
Lactobacillus brevis = assay: Growth curves in liquid culture (optical density) vs DMSO control; type: cell-based; conditions: 5-50 μM, FIG. 4
Description: Growth experiments with NQNO were conducted against Neisseria gonorrhoeae strain MS11 (Edwards, M., et al., Antigenic analysis of gonococcal pili using monoclonal antibodies, J Exp Med, 1984. 160(6): p. 1782-91) and a multidrug-resistant N. gonorrhoeae isolate from Slovenia (Unemo M, Golparian O, Potočnik M, Jeverica S. Treatment failure of pharyngeal gonorrhoea with internationally recommended first-line ceftriaxone verified in Slovenia, September 2011. Euro Surveill. 2012; 17(25):pii=20200), Neisseria macacae, and Lactobacillus brevis. The bacteria were inoculated in GC (Difco™ GC medium Ref. 228950, BD Becton Dickinson) and PPM broth (15 g/L Proteon Pepton, 1 g/L soluble starch, 5 g/L NaCl, 4 g/L KH2PO4, 1 g/L K2HPO4, pH 7.5) (Neisseriae) or TSB (BBL™ Trypticase Soy Broth Ref 211768, BD Becton Dickinson) (Lactobacillus) supplemented with solvent (DMSO) or the indicated concentrations of NQNO (5-50 04) and their growth at 37° C. was monitored over the course of 10 h by optical density readings in 30 minute intervals. […]
Before every experiment, bacteria were pre-cultured in 5 ml liquid medium for at least 2 hours then harvested and resuspended in PBS (phosphate buffered saline). Optical density (OD) was determined and a volume equal to an OD of 0.2 was inoculated into 5 ml of the respective medium. […] Optical density was determined every 0.5 h.

[1] = Stability in deuterated methanol by proton NMR; type: physicochemical; conditions: 25 mM in deuterated methanol, 25° C. or 37° C., 28 days
Description: Two samples of NQNO were dissolved in deuterated methanol (CD3OD) to reach a final concentration of 25 mM. Samples were kept at 25° C. or 37° C. for 28 days and proton NMR spectra were measured with the same acquisition parameters every week and the spectra compared with the ones from day 0.

[2] = Tissue integrity and tolerability after topical vaginal application in CEAtg mice; type: in vivo
Description: 6 to 8 week old, female CEA-transgenic mice were infected with N. gonorrhoeae. 2 h after infection, the animals were treated with 20 μl buffer containing solvent (DMSO) or 50 μM NQNO (Compound represented by the Formula (5)). 20 h later, the genital tract was excised and cryosections were stained for cell nuclei (Hoechst; blue), human CEA (red) and N. gonorrhoeae (gonococci, green) (FIG. 8).
Additional cryosections from the same samples were stained for cell nuclei (Hoechst; blue), human collagen (red) and N. gonorrhoeae (gonococci, green) (FIG. 9).
6 to 8 week old, female CEA-transgenic mice were treated with 20 μl buffer containing solvent (DMSO) or 50 μM NQNO (Compound represented by the Formula (5)). 20 h later, the genital tract was excised, fixed, paraffin embedded and tissue sections were stained with HE (Haematoxilin/Eosin) solution.
In particular, in the above experiment the genital tract of infected and NQNO/DMSO or DMSO treated animals was excised and placed in 4% neutral buffer containing formalin overnight followed by 0.4% PFA (paraformaldehyde) treatment. The tissue was then dehydrated and embedded in paraffin. 10 μm serial sections were cut, deparaffinized and rehydrated in a graded series (100% to 75%) of ethanol. Sections were serially stained with Hematoxilin solution according to Mayer (Sigma) and 0.5% Eosin G solution (Roth).

What does the source list for `CCCCCCCCCc1cc(=O)c2ccccc2n1O` [NQNO, 1-Hydroxy-2-nonylquinolin-4(1H)-one]?
Effect on growth (Lactobacillus brevis): did not compromise the growth; Stability in solvent [1]: stable at 37 °C in deuterated methanol for at least one month; Histology of vaginal tract epithelium (HE staining) ([2]; CEAtg mice, 20 μl of 50 μM, 20 h, FIG. 10): intact striated epithelium; Integrity of mucosal surface and subepithelial tissue (CEA and collagen staining) ([2]; infected CEAtg mice, 20 μl of 50 μM topical, 20 h, FIGS. 8 and 9): continuous and unaltered mucosal surface; also recorded: does not damage the mucosal surface; Signs of discomfort in treated mice ([2]; single topical application): did not show any signs of discomfort
